{
  "source": "ChEMBL document CHEMBL1150311",
  "about": "“4-Methyl-5-phenyl triazoles as selective inhibitors of 11beta-hydroxysteroid dehydrogenase type I” (Bioorg Med Chem Lett, 2008)",
  "data": [
    {"molecular_target": "11-beta-hydroxysteroid dehydrogenase 1 (Homo sapiens, UniProt P28845)", "sequence (P28845 whole entry)": "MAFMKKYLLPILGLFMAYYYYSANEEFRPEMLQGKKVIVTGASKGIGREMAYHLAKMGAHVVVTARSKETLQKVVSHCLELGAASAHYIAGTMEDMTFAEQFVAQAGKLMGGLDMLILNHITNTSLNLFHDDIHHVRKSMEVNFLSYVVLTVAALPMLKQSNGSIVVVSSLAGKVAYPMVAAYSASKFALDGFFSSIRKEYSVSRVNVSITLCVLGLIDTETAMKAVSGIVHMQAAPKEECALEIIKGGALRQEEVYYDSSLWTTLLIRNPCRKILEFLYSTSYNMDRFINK", "experiment": "Inhibition of human 11beta HSD1 by SPA assay", "details": "not given", "units": {"IC50": "nM"}, "values": [
      {"smiles": "Cc1cn(-c2ccc(-c3nnc(C4(c5ccc(Cl)cc5)CCC4)n3C)c(Cl)c2)c(C2CC2)n1", "IC50": 9.8},
      {"smiles": "Cn1c(-c2ccc(-c3cccnc3)cc2Cl)nnc1C1(c2ccc(Cl)cc2)CCC1", "IC50": 1},
      {"smiles": "Cn1c(-c2ccc(-n3ccnc3)cc2Cl)nnc1C1(c2ccc(Cl)cc2)CCC1", "IC50": 1},
      {"smiles": "CCSc1ccccc1-c1ccc(-c2nnc(C3(c4ccc(Cl)cc4)CCC3)n2C)c(Cl)c1", "IC50": 11},
      {"smiles": "Cn1c(-c2ccc(-c3ccccn3)cc2Cl)nnc1C1(c2ccc(Cl)cc2)CCC1", "IC50": 1},
      {"smiles": "Cn1c(-c2ccc(-c3ccncc3)cc2Cl)nnc1C1(c2ccc(Cl)cc2)CCC1", "IC50": 1},
      {"smiles": "Cn1c(-c2ccc(-c3ccc(S(C)(=O)=O)cc3)cc2Cl)nnc1C1(c2ccc(Cl)cc2)CCC1", "IC50": 1.7}
    ]},
    {"molecular_target": "11-beta-hydroxysteroid dehydrogenase 1 (Mus musculus, UniProt P50172)", "sequence (P50172 whole entry)": "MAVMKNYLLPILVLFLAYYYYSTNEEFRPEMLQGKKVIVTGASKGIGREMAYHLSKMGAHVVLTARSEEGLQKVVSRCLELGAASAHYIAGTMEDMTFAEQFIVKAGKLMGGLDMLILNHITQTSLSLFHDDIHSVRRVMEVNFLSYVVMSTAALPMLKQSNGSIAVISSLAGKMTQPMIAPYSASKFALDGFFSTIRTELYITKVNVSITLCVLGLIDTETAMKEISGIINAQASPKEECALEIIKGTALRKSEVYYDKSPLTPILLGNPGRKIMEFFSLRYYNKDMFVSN", "experiment": "Inhibition of mouse 11beta HSD1 by SPA assay", "details": "not given", "units": {"IC50": "nM"}, "values": [
      {"smiles": "Cc1cn(-c2ccc(-c3nnc(C4(c5ccc(Cl)cc5)CCC4)n3C)c(Cl)c2)c(C2CC2)n1", "IC50": 6},
      {"smiles": "Cn1c(-c2ccc(-c3cccnc3)cc2Cl)nnc1C1(c2ccc(Cl)cc2)CCC1", "IC50": 1.3},
      {"smiles": "Cn1c(-c2ccc(-n3ccnc3)cc2Cl)nnc1C1(c2ccc(Cl)cc2)CCC1", "IC50": 2.8},
      {"smiles": "CCSc1ccccc1-c1ccc(-c2nnc(C3(c4ccc(Cl)cc4)CCC3)n2C)c(Cl)c1", "IC50": 4.7},
      {"smiles": "Cn1c(-c2ccc(-c3ccccn3)cc2Cl)nnc1C1(c2ccc(Cl)cc2)CCC1", "IC50": 1.4},
      {"smiles": "Cn1c(-c2ccc(-c3ccncc3)cc2Cl)nnc1C1(c2ccc(Cl)cc2)CCC1", "IC50": 2},
      {"smiles": "Cn1c(-c2ccc(-c3ccc(S(C)(=O)=O)cc3)cc2Cl)nnc1C1(c2ccc(Cl)cc2)CCC1", "IC50": 1.2}
    ]},
    {"molecular_target": "T1, 11-beta-hydroxysteroid dehydrogenase type 2 (Homo sapiens, UniProt P80365)", "T1 sequence (P80365 whole entry)": "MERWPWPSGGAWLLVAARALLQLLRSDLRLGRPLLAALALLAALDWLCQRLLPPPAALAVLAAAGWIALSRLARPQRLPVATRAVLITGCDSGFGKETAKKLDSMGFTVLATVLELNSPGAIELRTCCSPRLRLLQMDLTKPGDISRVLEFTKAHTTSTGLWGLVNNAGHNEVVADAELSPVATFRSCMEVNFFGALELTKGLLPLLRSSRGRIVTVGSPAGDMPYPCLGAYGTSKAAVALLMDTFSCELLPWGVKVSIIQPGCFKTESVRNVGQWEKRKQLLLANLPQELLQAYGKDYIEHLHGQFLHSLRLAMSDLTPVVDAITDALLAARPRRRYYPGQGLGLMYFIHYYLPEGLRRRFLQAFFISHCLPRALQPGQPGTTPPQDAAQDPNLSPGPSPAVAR", "experiment": "Inhibition of human 11beta HSD2", "details": "not given", "units": {"IC50": "nM"}, "values": [
      {"smiles": "Cn1c(-c2ccc(-c3ccc(S(C)(=O)=O)cc3)cc2Cl)nnc1C1(c2ccc(Cl)cc2)CCC1", "IC50": "> 4000"}
    ]},
    {"molecular_target": "T2, 11-beta-hydroxysteroid dehydrogenase type 2 (Mus musculus, UniProt P51661)", "T2 sequence (P51661 whole entry)": "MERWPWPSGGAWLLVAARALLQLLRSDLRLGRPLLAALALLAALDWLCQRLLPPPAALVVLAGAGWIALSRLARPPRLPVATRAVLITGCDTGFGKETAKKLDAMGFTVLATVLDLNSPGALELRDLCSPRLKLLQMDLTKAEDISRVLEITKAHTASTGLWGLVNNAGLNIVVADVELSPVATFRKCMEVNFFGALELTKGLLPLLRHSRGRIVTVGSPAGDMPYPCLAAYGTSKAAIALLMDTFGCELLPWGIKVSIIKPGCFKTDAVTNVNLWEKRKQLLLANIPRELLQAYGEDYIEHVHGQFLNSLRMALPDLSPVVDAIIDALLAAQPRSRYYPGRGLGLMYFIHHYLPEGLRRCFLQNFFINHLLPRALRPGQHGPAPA", "experiment": "Inhibition of mouse 11beta HSD2", "details": "not given", "units": {"IC50": "nM"}, "values": [
      {"smiles": "Cc1cn(-c2ccc(-c3nnc(C4(c5ccc(Cl)cc5)CCC4)n3C)c(Cl)c2)c(C2CC2)n1", "IC50": "> 4000"},
      {"smiles": "Cn1c(-c2ccc(-c3cccnc3)cc2Cl)nnc1C1(c2ccc(Cl)cc2)CCC1", "IC50": "> 4000"},
      {"smiles": "Cn1c(-c2ccc(-n3ccnc3)cc2Cl)nnc1C1(c2ccc(Cl)cc2)CCC1", "IC50": "> 4000"},
      {"smiles": "CCSc1ccccc1-c1ccc(-c2nnc(C3(c4ccc(Cl)cc4)CCC3)n2C)c(Cl)c1", "IC50": "> 4000"},
      {"smiles": "Cn1c(-c2ccc(-c3ccccn3)cc2Cl)nnc1C1(c2ccc(Cl)cc2)CCC1", "IC50": "> 4000"},
      {"smiles": "Cn1c(-c2ccc(-c3ccncc3)cc2Cl)nnc1C1(c2ccc(Cl)cc2)CCC1", "IC50": "> 4000"},
      {"smiles": "Cn1c(-c2ccc(-c3ccc(S(C)(=O)=O)cc3)cc2Cl)nnc1C1(c2ccc(Cl)cc2)CCC1", "IC50": "> 4000"}
    ]},
    {"tested_on": "Mus musculus", "experiment": "Inhibition of [3H]cortisone to [3H]cortisol conversion in mouse at 10 mg/kg, po administered as single dose after 4 hrs", "assay_type": "functional", "details": "not given", "units": {"inhibition in vivo at 10 mg/kg": "%"}, "values": [
      {"smiles": "Cc1cn(-c2ccc(-c3nnc(C4(c5ccc(Cl)cc5)CCC4)n3C)c(Cl)c2)c(C2CC2)n1", "inhibition in vivo at 10 mg/kg": 60},
      {"smiles": "Cn1c(-c2ccc(-c3cccnc3)cc2Cl)nnc1C1(c2ccc(Cl)cc2)CCC1", "inhibition in vivo at 10 mg/kg": 100},
      {"smiles": "Cn1c(-c2ccc(-n3ccnc3)cc2Cl)nnc1C1(c2ccc(Cl)cc2)CCC1", "inhibition in vivo at 10 mg/kg": 78},
      {"smiles": "CCSc1ccccc1-c1ccc(-c2nnc(C3(c4ccc(Cl)cc4)CCC3)n2C)c(Cl)c1", "inhibition in vivo at 10 mg/kg": 51},
      {"smiles": "Cn1c(-c2ccc(-c3ccccn3)cc2Cl)nnc1C1(c2ccc(Cl)cc2)CCC1", "inhibition in vivo at 10 mg/kg": 41},
      {"smiles": "Cn1c(-c2ccc(-c3ccncc3)cc2Cl)nnc1C1(c2ccc(Cl)cc2)CCC1", "inhibition in vivo at 10 mg/kg": 39},
      {"smiles": "Cn1c(-c2ccc(-c3ccc(S(C)(=O)=O)cc3)cc2Cl)nnc1C1(c2ccc(Cl)cc2)CCC1", "inhibition in vivo at 10 mg/kg": 20}
    ]},
    {"tested_on": "Mus musculus", "experiment": "Inhibition of [3H]cortisone to [3H]cortisol conversion in mouse at 10 mg/kg, po administered as single dose after 16 hrs", "assay_type": "functional", "details": "not given", "units": {"inhibition in vivo at 10 mg/kg": "%"}, "values": [
      {"smiles": "Cc1cn(-c2ccc(-c3nnc(C4(c5ccc(Cl)cc5)CCC4)n3C)c(Cl)c2)c(C2CC2)n1", "inhibition in vivo at 10 mg/kg": 7},
      {"smiles": "Cn1c(-c2ccc(-c3cccnc3)cc2Cl)nnc1C1(c2ccc(Cl)cc2)CCC1", "inhibition in vivo at 10 mg/kg": 26},
      {"smiles": "Cn1c(-c2ccc(-n3ccnc3)cc2Cl)nnc1C1(c2ccc(Cl)cc2)CCC1", "inhibition in vivo at 10 mg/kg": 10},
      {"smiles": "CCSc1ccccc1-c1ccc(-c2nnc(C3(c4ccc(Cl)cc4)CCC3)n2C)c(Cl)c1", "inhibition in vivo at 10 mg/kg": 1},
      {"smiles": "Cn1c(-c2ccc(-c3ccccn3)cc2Cl)nnc1C1(c2ccc(Cl)cc2)CCC1", "inhibition in vivo at 10 mg/kg": -5},
      {"smiles": "Cn1c(-c2ccc(-c3ccncc3)cc2Cl)nnc1C1(c2ccc(Cl)cc2)CCC1", "inhibition in vivo at 10 mg/kg": 8},
      {"smiles": "Cn1c(-c2ccc(-c3ccc(S(C)(=O)=O)cc3)cc2Cl)nnc1C1(c2ccc(Cl)cc2)CCC1", "inhibition in vivo at 10 mg/kg": -5}
    ]},
    {"molecular_target": "T3, Nuclear receptor subfamily 1 group I member 2 (Homo sapiens, UniProt O75469)", "T3 sequence (O75469 whole entry)": "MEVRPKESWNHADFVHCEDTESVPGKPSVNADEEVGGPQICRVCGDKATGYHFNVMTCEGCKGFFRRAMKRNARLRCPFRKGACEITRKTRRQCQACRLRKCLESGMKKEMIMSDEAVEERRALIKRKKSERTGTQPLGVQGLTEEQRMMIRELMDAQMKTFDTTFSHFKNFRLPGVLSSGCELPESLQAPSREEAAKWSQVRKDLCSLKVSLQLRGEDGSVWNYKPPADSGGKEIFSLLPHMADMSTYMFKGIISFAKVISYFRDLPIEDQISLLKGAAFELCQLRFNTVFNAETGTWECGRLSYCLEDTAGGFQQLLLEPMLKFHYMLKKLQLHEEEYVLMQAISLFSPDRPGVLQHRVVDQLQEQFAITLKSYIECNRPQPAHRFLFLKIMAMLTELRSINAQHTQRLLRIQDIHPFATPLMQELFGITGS", "experiment": "Agonist activity at human PXR", "assay_type": "functional", "details": "not given", "units": {"EC50": "nM"}, "values": [
      {"smiles": "Cc1cn(-c2ccc(-c3nnc(C4(c5ccc(Cl)cc5)CCC4)n3C)c(Cl)c2)c(C2CC2)n1", "EC50": 1300},
      {"smiles": "Cn1c(-c2ccc(-c3cccnc3)cc2Cl)nnc1C1(c2ccc(Cl)cc2)CCC1", "EC50": 3600},
      {"smiles": "Cn1c(-c2ccc(-n3ccnc3)cc2Cl)nnc1C1(c2ccc(Cl)cc2)CCC1", "EC50": 12000},
      {"smiles": "CCSc1ccccc1-c1ccc(-c2nnc(C3(c4ccc(Cl)cc4)CCC3)n2C)c(Cl)c1", "EC50": 1700},
      {"smiles": "Cn1c(-c2ccc(-c3ccccn3)cc2Cl)nnc1C1(c2ccc(Cl)cc2)CCC1", "EC50": 2400},
      {"smiles": "Cn1c(-c2ccc(-c3ccncc3)cc2Cl)nnc1C1(c2ccc(Cl)cc2)CCC1", "EC50": 7700},
      {"smiles": "Cn1c(-c2ccc(-c3ccc(S(C)(=O)=O)cc3)cc2Cl)nnc1C1(c2ccc(Cl)cc2)CCC1", "EC50": "> 25000"}
    ]},
    {"molecular_target": "T3, Nuclear receptor subfamily 1 group I member 2", "experiment": "Agonist activity at human PXR at 10 uM", "assay_type": "functional", "details": "not given", "units": {"Activity": "%"}, "values": [
      {"smiles": "Cc1cn(-c2ccc(-c3nnc(C4(c5ccc(Cl)cc5)CCC4)n3C)c(Cl)c2)c(C2CC2)n1", "Activity": 13},
      {"smiles": "Cn1c(-c2ccc(-c3cccnc3)cc2Cl)nnc1C1(c2ccc(Cl)cc2)CCC1", "Activity": 35},
      {"smiles": "Cn1c(-c2ccc(-n3ccnc3)cc2Cl)nnc1C1(c2ccc(Cl)cc2)CCC1", "Activity": 21},
      {"smiles": "CCSc1ccccc1-c1ccc(-c2nnc(C3(c4ccc(Cl)cc4)CCC3)n2C)c(Cl)c1", "Activity": 48},
      {"smiles": "Cn1c(-c2ccc(-c3ccccn3)cc2Cl)nnc1C1(c2ccc(Cl)cc2)CCC1", "Activity": 98},
      {"smiles": "Cn1c(-c2ccc(-c3ccncc3)cc2Cl)nnc1C1(c2ccc(Cl)cc2)CCC1", "Activity": 42},
      {"smiles": "Cn1c(-c2ccc(-c3ccc(S(C)(=O)=O)cc3)cc2Cl)nnc1C1(c2ccc(Cl)cc2)CCC1", "Activity": 2}
    ]},
    {"molecular_target": "T4, 11-beta-hydroxysteroid dehydrogenase type 2 (Homo sapiens) (UniProt P80365)", "T4 sequence (whole entry)": "T1 sequence (P80365 whole entry)", "details": "at 4 µM", "units": {"inhibition": "%"}, "description": "Inhibition of human 11beta HSD2 at 4 uM", "values": [
      {"smiles": "CCSc1ccccc1-c1ccc(-c2nnc(C3(c4ccc(Cl)cc4)CCC3)n2C)c(Cl)c1", "inhibition": 54}
    ]}
  ]
}
